Experimental data as given in US11512087B2, “BRK inhibitory compound” (priority 2015, dated 2022).

Tests used:
Lck = Lck (Homo sapiens (Human), UniProt P06239); experiment: Lck inhibitory activity (Z'-LYTE Kinase Assay Kit-Tyr 2 Peptide, FRET); type: biochemical
Experimental: The Lck activity was determined by using Fluorescence Resonance Energy Transfer (FRET) method.
A dilute solution (5 μL) of the compound of the present invention in dimethylsulfoxide (DMSO; Sigma-Aldrich Co. LLC) was added to a 96-well assay plate. In addition, Peptide/Kinase Buffer composed of DL-dithiothreitol (DTT; 2 mM), Tyr 2 Peptide (2 μM), Kinase Buffer and Lck was added to the assay plate, and the reaction solution was preincubated at 25° C. for 20 minutes. […] After incubation, Coloring Solution A (10 μL) composed of Coloring Reagent B and Coloring Buffer was added, and the reaction solution was incubated at 25° C. for 1 hour. Stop Reagent (10 μL) was added to each well such that the enzymatic reaction stopped. The fluorescent coloring of each well was measured on a fluorescent plate reader by using wavelengths of 445 nm and 520 nm. The ratio of phosphorylation was determined by a ratio of coloring at 445 nm to that at 520 nm according to the attached manual.
The inhibition rate (%) of the compound of the present invention was calculated according to the following Numerical Formula 2. Inhibition rate (%)={1−(AX−AB)/(AC−AB)}×100 [Numerical Formula 2]
AX: Ratio of phosphorylation at addition of the compound of the present invention
AB: Ratio of phosphorylation in blank
AC: Ratio of phosphorylation at addition of only DMSO

Syk kinase = Syk kinase (Homo sapiens (Human), UniProt P43405); experiment: Syk inhibitory activity (mobility shift, QuickScout Screening Assist MSA); type: biochemical; settings: read-out: Syk inhibitory activity (Inhibition rate at 1 μM of compound)
Experimental: The compound of the present invention was dissolved in DMSO to prepare a solution with a concentration of 100 times the test concentration of 1 μmol/L. The solution was further diluted 25-fold with Assay Buffer (20 mmol/L HEPES, 0.01% Triton X-100, 2 mmol/L DTT, pH 7.5) to give a test substance solution. With regard to a positive control substance (Staurosporine), a solution of the positive control substance was prepared in a similar manner.
Five microliters of a test substance solution with a concentration of four times prepared by using Assay Buffer, 5 μL of a solution of a substrate (Blk/Lyntide)/ATP/a metal (Mg) with a concentration of four times and 10 μL of a solution of Syk kinase with a concentration of two times were mixed in a well of a 384-well plate made of polypropylene, and the mixture was subjected to a reaction at room temperature for 1 hour (the final concentration of the substrate was 1,000 nmol/L, and the final concentration of ATP was 26 μmol/L). To the mixture, 60 μL of Termination Buffer (QuickScout Screening Assist MSA; Carna Biosciences, Inc.) was added to stop the reaction. The substrate peptide and the phosphorylated peptide in the reaction solution were separated, and were quantified. The kinase reaction was evaluated by a product ratio (P/(P+S)) calculated from a peak height (S) of the substrate peptide and a peak height (P) of the phosphorylated peptide.

Sequence of Lck (P06239 whole entry, species assumed): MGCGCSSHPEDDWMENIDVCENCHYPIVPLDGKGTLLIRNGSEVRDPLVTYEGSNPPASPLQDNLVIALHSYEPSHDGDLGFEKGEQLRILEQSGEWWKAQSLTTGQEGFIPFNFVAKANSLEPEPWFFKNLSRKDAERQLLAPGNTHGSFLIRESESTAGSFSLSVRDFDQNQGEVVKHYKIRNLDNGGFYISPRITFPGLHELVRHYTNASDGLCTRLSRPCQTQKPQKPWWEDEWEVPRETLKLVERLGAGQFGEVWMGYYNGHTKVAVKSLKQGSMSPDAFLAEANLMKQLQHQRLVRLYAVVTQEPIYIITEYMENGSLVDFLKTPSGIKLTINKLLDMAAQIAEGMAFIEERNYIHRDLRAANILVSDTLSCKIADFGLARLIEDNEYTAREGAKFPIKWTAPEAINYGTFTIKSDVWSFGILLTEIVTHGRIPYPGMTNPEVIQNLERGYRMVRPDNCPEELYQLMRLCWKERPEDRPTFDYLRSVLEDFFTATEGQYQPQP

Structure (SMILES) | IC50 (Lck) [µM] | inhibition at 1 µM (Syk kinase) [%]
Cc1nn(C)cc1Nc1nc(N)c2c(-c3ccc4[nH]ccc4c3)nn(C(C)C)c2n1 [Example 1, N^6-(1,3-dimethyl-1H-pyrazol-4-yl)-3-(1H-indol-5-yl)-1-isopropyl-1H-pyrazolo[3,4-d]pyrimidine-4,6-diamine] | > 10 | 0
CC(C)n1cc(-c2ccc(C#N)c3[nH]ncc23)c2c(N)nc(Nc3ccc(S(C)(=O)=O)cc3F)nc21 [Example 13-1, 4-(4-Amino-2-{[2-fluoro-4-(methylsulfonyl)phenyl]amino}-7-isopropyl-7H-pyrrolo[2,3-d]pyrimidin-5-yl)-1H-indazole-7-carbonitrile] | > 10 | 0
CC(C)n1nc(-c2ccc(F)c3[nH]ncc23)c2c(N)nc(Nc3ccc(S(C)(=O)=O)cc3F)nc21 [Example 4-3, 3-(7-Fluoro-1H-indazol-4-yl)-N^6-[2-fluoro-4-(methylsulfonyl)phenyl]-1-isopropyl-1H-pyrazolo[3,4-d]pyrimidine-4,6-diamine] | 2.5 | 0
